Measured values reported in patent publication US10406227B2, “Photoactivated molecules for light-induced modulation of the activity of electrically excitable cells and methods of using same” (University of Southern California, priority 2012, dated 2019).

Legend:
[1] = system: mouse adrenal chromaffin cells; experiment: Perforated patch clamp action potential recording; assay type: cell-based
Protocol: Action potentials in chromaffin cells were monitored using perforated patch clamp electrophysiology in current-clamp mode, using an EPC10 amplifier and Pulsemaster data acquisition software (HEKA electronics). A coverslip containing mouse chromaffin cells was transferred to a recording chamber and perfused with extracellular solution. Extracellular solution consists of 140 mM NaCl, 2.8 mM KCl, 10 mM HEPES, 1 mM MgCl2, 2 mM CaCl2, 10 mM glucose, pH adjusted to 7.3, and osmolarity adjusted to 290-300 mOsm. Intracellular solution consisted of 145 mM KCl, 10 mM NaCl, 1 mM MgCl2, and 10 mM HEPES, pH adjusted to 7.3 and osmolarity adjusted to 290-300 mOsm. Perforation solution was prepared by adding 4.5 μl of 125 mg/ml stock of amphoterecin B (Sigma) in DMSO to 1.8 mls of intracellular solution, and homogenizing for 5-10 s. Perforation was achieved within 3-10 min following gigaseal formation. Series resistances were in the range of 8-22 Mohm. Light stimulation in the blue spectrum originated from a xenon lamp source with an irradiance value of 0.480 mE s^−1 m^−2 through a 470/40 nm bandpass excitation filter. The duration of illumination varied and is indicated by bars on figures.
The behavior of excitable cells (cells capable of firing action potentials) treated with RubpyC17 was next investigated. Perforated patch clamp recording was performed on mouse adrenal chromaffin cells pretreated with 450-900 nM RubpyC17 for 15-30 minutes before beginning electrophysiological recordings. […] A slow, gradual reversal, on the order of seconds after light illumination was terminated (FIG. 3A), was observed.

HEK293T cells = experiment: Voltage-clamp membrane current during illumination; assay type: cell-based, human; details: voltage-clamp at approximately −80 mV
Protocol: To examine whether light-activated RubpyC17 can directly interact and open or block endogenous ion channels, HEK293T cells were preincubated with RubpyC17, and patch-clamped in a voltage-clamp configuration. Voltage-clamp configuration allowed the cells to be clamped at a potential where most voltage-gated ion channels are closed (approximately −80 mV). […] The current-voltage relationship (FIGS. 5C, D) as well as the steady-state voltage-dependent activation curves of RubpyC17-treated chromaffin cells in voltage-clamp mode before and during light illumination (FIG. 5E).

INS cells = experiment: Whole cell patch clamp, current-clamp membrane potential under blue light; assay type: cell-based, rat; details: for light-induced increase in membrane potential (depolarization): 10 μM ~2 min preincubation, 488 nm
Protocol: Membrane potential was monitored using whole cell patch clamp in current-clamp mode. Cultured cells (INS and HEK293) were plated on a glass-bottomed culture dishes 1-3 days prior to recording. Cells were incubated in standard extracellular solution with or without 10 μM RubpyC17 compound for approximately 1.5-2 minutes, then washed and incubated with standard extracellular solution without additional supplementation, or with 2-5 mM ascorbate, 100 μM sodium ferrocyanide, or 100-200 μM potassium ferricyanide, as indicated. The chamber was transferred to the microscope stage. Extracellular solution consisted of 140 mM NaCl, 2.8 mM KCl, 10 mM HEPES, 1 mM MgCl2, 2 mM CaCl2, 10 mM glucose, pH adjusted to 7.3, and osmolarity adjusted to 300-310. Conventional whole-cell patch clamp recordings were performed with an EPC-9 amplifier and Pulse software (HEKA Electronics). Pipette electrodes of 1.8-3.5 Mohm were fire polished before use. Intracellular solution consisted of: 145 mM KCl, 10 mM NaCl, 1 mM MgCl2, 1 mM EGTA, 2 mM ATP, 0.3 mM GTP and 10 mM HEPES, pH adjusted to 7.3 and osmolarity adjusted to 290-300 mOsm. To monitor changes in membrane voltage/potential, cells were patch clamped in current-clamp mode. Access resistances were in the range of 3-8 Mohm. Using Pulse, membrane potentials were recorded before, during and after illumination by the argon ion laser at 488 nm with an irradiance value of 0.458 mE s^−1 m^−2 or by a xenon lamp source through a 470/40 nm bandpass excitation filter with an irradiance value of 0.480 mE s^−1 m^−2. […]
Initial attempts were tied to INS and HEK cells, both cells that are not excitable under normal conditions (INS cells were maintained in low glucose <3 mM to prevent action potentials). […] To monitor the plasma membrane potential, the cells were patch-clamped in whole-cell configuration in current-clamp mode and membrane voltages were recorded while illuminating the cell at 488 nm (0.46-0.48 mE s^−1 m^−2), though other wavelengths are useful, depending on the embodiment.

[2] = system: primary cultured mouse chromaffin cells; experiment: Imaging RubpyC17 in live cells (membrane luminescence); assay type: cell-based
Protocol: Cells were imaged at 1-3 days after plating. The glass-bottomed chambers with adherent cells were washed twice with PBS and then filled with standard extracellular solution consisting of 140 mM NaCl, 2.8 mM KCl, 10 mM HEPES, 1 mM MgCl2, 2 mM CaCl2, and 10 mM glucose, pH adjusted to 7.2-7.4 and osmolarity adjusted to 290-310 mOsm. The chamber was then mounted on an Olympus IX70 inverted microscope stage for imaging, using a Cascade 512B EMCCD camera, operated by Metamorph software. Initial imaging was done with cells in extracellular solution without RubpyC17, first under brightfield to evaluate cell health and morphology, then under widefield argon ion laser illumination at 488 nm (Coherent, Innova 90-5, Santa Clara, Calif.), to evaluate autofluorescence. Next, the extracellular solution was removed and replaced with extracellular solution containing the RubpyC17 compound (10 μM in ≤0.01% DMSO, final concentrations). Cell images were then acquired with illumination at 488 nm (collected with a long-pass red emission filter). For electrophysiological experiments, RubpyC17 compound was added to the extracellular solution (2-10 μM in ≤0.01% DMSO, final concentrations as indicated) and cells were incubated for 1.5-45 min, as indicated, then washed with extracellular solution without RubpyC17. Some chromaffin cells were also exposed continuously to 490-900 nM RubpyC17-containing extracellular solution.
Illustrated here are rat insulinoma INS cells (FIG. 1C, top), human embryonic kidney (HEK293T) cells (FIG. 1C, middle), and primary cultured mouse chromaffin cells (FIG. 1C, bottom). […] All cell types preserved morphology for at least 10 minutes. […] One embodiment of the possible light-induced electron transfer is depicted in FIG. 1D.

Substance: [Ru(bpy)2(bpy-C17)](PF6)2 [RubpyC17]
- effect of light on action potential firing ([1]; 900 nM RubpyC17 pretreatment, 5 mM ascorbate): triggered action potentials or increased the rate of action potential firing
- action potential firing rate, single cell, ascorbate changed for ferricyanide ([1]; 2 μM RubpyC17 for 1.5 min): light-induced increase and then light-induced decrease
- effect of light on action potential firing ([1]; 100 μM ferricyanide): decreased the rate of action potential firing
- action potential waveform shape ([1]; before vs during light illumination): no change in the shape of action potential waveforms
- effect of light on action potential firing ([1]; ferricyanide increased from 100 to 200 μM): further suppressed action potential firing
- light-induced changes in membrane current (HEK293T cells): did not exhibit light-induced changes in membrane current
- light-induced increase in membrane potential (depolarization) (INS cells; 2 mM ascorbate): 15.9 ± 4.6 mV
- light-induced increase in membrane potential (depolarization) (INS cells; absence of ascorbate): 9.8 ± 4.5 mV
- light-triggered depolarization with non-permeating ions (INS cells; NMDG for sodium, cesium for potassium, ascorbate present): still persisted
- time cell morphology preserved ([2]; 10 μM RubpyC17): at least 10 minutes
- incorporation into plasma membrane (membrane-localized luminescence) ([2]; 10 μM in bath, 488 nm excitation): rapidly and stably incorporates into mammalian cell membranes
- membrane luminescence after removal from bath solution ([2]; 10 minutes after RubpyC17 removal): still observed
